Test results as given in patent publication US11000033B2, “Ketone or oxime compound, and herbicide” (NISSAN CHEMICAL CORPORATION, priority 2014, dated 2021).

Columns and labels:
Type in all cases: in vivo
[1] = system: directly sowed rice plant; assay: Test Example 3: effect on crop by foliage application, Wagner pot (symbol b); details: application herbicide amount 320 g/ha
Summary of the method: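 Steps: fill a 1/10000-are Wagner pot with alluvial soil; add water and mix to submerge at 0.1–0.5 cm depth; sow rice plus Echinochloa crus-galli var. crus-galli, Leptochloa chinensis and Cyperus difformis; grow in a 25–30 °C greenhouse.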

Stellaria media = assay: Test Example 5: herbicidal effect by foliage application, plastic box (symbol P); details: 320 g/ha, 3 weeks after application
Summary of the method: (§1)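 Emulsion formulation, diluted with water to the intended rate, was applied uniformly to leaves by small sprayer. Recipients were 14-day greenhouse-grown seedlings (25° C. to 30° C.). Assessment followed at 3 weeks.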

Abutilon theophrasti = assay: Test Example 5: herbicidal effect by foliage application, plastic box (symbol M); details: 320 g/ha, 3 weeks after application
Summary of the method: as §1

rapeseed = assay: Test Example 5: effect on crop by foliage application, plastic box (symbol g); details: 320 g/ha, 3 weeks after application
Summary of the method: (§2)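 Crop seed is sown alongside grass and broadleaf weed species in spots in sterilized diluvial soil, then covered to a depth of about 1.5 cm. Plants grow in a greenhouse kept at 25° C. to 30° C.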

Setaria viridis = assay: Test Example 5: herbicidal effect by foliage application, plastic box (symbol G); details: 320 g/ha, 3 weeks after application
Summary of the method: as §1

Avena fatua = assay: Test Example 5: herbicidal effect by foliage application, plastic box (symbol I); details: 320 g/ha, 3 weeks after application
Summary of the method: as §1

Veronica persica = assay: Test Example 5: herbicidal effect by foliage application, plastic box (symbol R); details: 320 g/ha, 3 weeks after application
Summary of the method: as §1

Lolium multiflorum Lam. = assay: Test Example 5: herbicidal effect by foliage application, plastic box (symbol K); details: 320 g/ha, 3 weeks after application
Summary of the method: as §1

Monochoria vaginalis [2] = assay: Test Example 1: herbicidal activity, application before weed generation in submerged conditions (symbol C); details: application herbicide amount 320 g/ha
Summary of the method: (§3)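 Mixed weed seeds sown in alluvial soil under 4 cm of water, with rice seedlings at the 2.5-leaf stage added. Same-day treatment: emulsion diluted to a set herbicide amount onto the water. Three weeks at 25–30 °C, then graded on a six-step scale.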

wheat = assay: Test Example 5: effect on crop by foliage application, plastic box (symbol e); details: 320 g/ha, 3 weeks after application
Summary of the method: as §2

Galium spurium = assay: Test Example 5: herbicidal effect by foliage application, plastic box (symbol Q); details: 320 g/ha, 3 weeks after application
Summary of the method: as §1

Apera spica-venti = assay: Test Example 5: herbicidal effect by foliage application, plastic box (symbol L); details: 320 g/ha, 3 weeks after application
Summary of the method: as §1

Leptochloa chinensis = assay: Test Example 3: herbicidal effect by foliage application, Wagner pot (symbol D); details: application herbicide amount 320 g/ha
Summary of the method: (§4)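 Alluvial soil was flooded to a depth of 0.1–0.5 cm, seeded with the weeds and rice, and kept in a greenhouse at 25–30 °C. After 14 days of growth, the foliage received a small-sprayer application of emulsion diluted to the intended rate; injury was rated at 3 weeks.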

[3] = system: Echinochloa oryzacola Vasing.; assay: Test Example 1: herbicidal activity, application before weed generation in submerged conditions (symbol A); details: application herbicide amount 320 g/ha
Summary of the method: as §3

transplanted rice plant = assay: Test Example 1: effect on crop, application before weed generation in submerged conditions (symbol a); details: application herbicide amount 320 g/ha
Summary of the method: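 Rice at 2.5 leaf stage transplanted into submerged soil (4 cm depth) sown with three weed species; herbicide applied before weed emergence.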

Monochoria vaginalis [4] = assay: Test Example 2: herbicidal activity, application during weed generation in submerged conditions (symbol C); details: Table 23; application herbicide amount 320 g/ha; grade 0-5 by criteria of Test Example 1
Summary of the method: (§5)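 Weeds emerging under flooded conditions were treated with compound formulated as an emulsion and diluted with water to the intended herbicide amount, poured onto the surface of 4 cm standing water. Seeds had been co-sown in alluvial soil; plants grew at 25° C. to 30° C. and were assessed after 3 weeks.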

Digitaria ciliaris = assay: Test Example 5: herbicidal effect by foliage application, plastic box (symbol F); details: 320 g/ha, 3 weeks after application
Summary of the method: as §1

Amaranthus retroflexus = assay: Test Example 5: herbicidal effect by foliage application, plastic box (symbol N); details: 320 g/ha, 3 weeks after application
Summary of the method: as §1

Alopecurus myosuroides = assay: Test Example 5: herbicidal effect by foliage application, plastic box (symbol J); details: 320 g/ha, 3 weeks after application
Summary of the method: as §1

Cyperus difformis = assay: Test Example 3: herbicidal effect by foliage application, Wagner pot (symbol E); details: application herbicide amount 320 g/ha
Summary of the method: as §4

Scirpus juncoides [5] = assay: Test Example 2: herbicidal activity, application during weed generation in submerged conditions (symbol B); details: Table 23; application herbicide amount 320 g/ha; grade 0-5 by criteria of Test Example 1
Summary of the method: as §5

[6] = system: Echinochloa crus-galli var. crus-galli; assay: Test Example 3: herbicidal effect by foliage application, Wagner pot (symbol H); details: application herbicide amount 320 g/ha
Summary of the method: as §4

beet = assay: Test Example 5: effect on crop by foliage application, plastic box (symbol f); details: 320 g/ha, 3 weeks after application
Summary of the method: as §2

corn = assay: Test Example 5: effect on crop by foliage application, plastic box (symbol c); details: 320 g/ha, 3 weeks after application
Summary of the method: as §2

rice plant = assay: Test Example 5: effect on crop by foliage application, plastic box (symbol b); details: 320 g/ha, 3 weeks after application
Summary of the method: as §2

[7] = system: Echinochloa crus-galli var. crus-galli; assay: Test Example 5: herbicidal effect by foliage application, plastic box (symbol H); details: 320 g/ha, 3 weeks after application
Summary of the method: as §1

Scirpus juncoides [8] = assay: Test Example 1: herbicidal activity, application before weed generation in submerged conditions (symbol B); details: application herbicide amount 320 g/ha
Summary of the method: as §3

Chenopodium album = assay: Test Example 5: herbicidal effect by foliage application, plastic box (symbol O); details: 320 g/ha, 3 weeks after application
Summary of the method: as §1

[9] = system: Echinochloa oryzacola Vasing.; assay: Test Example 2: herbicidal activity, application during weed generation in submerged conditions (symbol A); details: Table 23; application herbicide amount 320 g/ha; grade 0-5 by criteria of Test Example 1
Summary of the method: as §5

soybean = assay: Test Example 5: effect on crop by foliage application, plastic box (symbol d); details: 320 g/ha, 3 weeks after application
Summary of the method: as §2

SMILES: CON=C(C)CC1CC(O)=C(c2c(C)cc(C=Cc3ccccc3)cc2C)C1=O (stereo not drawn) [6-072]
- effect on crop b (directly sowed rice plant), grade 0-5 [1]: 0 (Herbicidal ratio of 5% or lower (almost no effect))
- P: Stellaria media, herbicidal effect (criteria of Test Example 1) (Stellaria media): 0 (Herbicidal ratio of 5% or lower (almost no effect))
- M: Abutilon theophrasti, herbicidal effect (criteria of Test Example 1) (Abutilon theophrasti): 0 (Herbicidal ratio of 5% or lower (almost no effect))
- g: rapeseed, effect on crop (criteria of Test Example 1) (rapeseed): 0 (Herbicidal ratio of 5% or lower (almost no effect))
- G: Setaria viridis, herbicidal effect (criteria of Test Example 1) (Setaria viridis): 4 (Herbicidal ratio of 70% or higher and lower than 90%)
- I: Avena fatua, herbicidal effect (criteria of Test Example 1) (Avena fatua): 3 (Herbicidal ratio of 40% or higher and lower than 70%)
- R: Veronica persica, herbicidal effect (criteria of Test Example 1) (Veronica persica): 0 (Herbicidal ratio of 5% or lower (almost no effect))
- K: Lolium multiflorum Lam., herbicidal effect (criteria of Test Example 1) (Lolium multiflorum Lam.): 2 (Herbicidal ratio of 20% or higher and lower than 40%)
- Herbicidal effect grade, C: Monochoria vaginalis (Monochoria vaginalis [2]): 0 (Herbicidal ratio of 5% or lower (almost no effect))
- e: wheat, effect on crop (criteria of Test Example 1) (wheat): 0 (Herbicidal ratio of 5% or lower (almost no effect))
- Q: Galium spurium, herbicidal effect (criteria of Test Example 1) (Galium spurium): 0 (Herbicidal ratio of 5% or lower (almost no effect))
- L: Apera spica-venti, herbicidal effect (criteria of Test Example 1) (Apera spica-venti): 0 (Herbicidal ratio of 5% or lower (almost no effect))
- herbicidal effect on D (Leptochloa chinensis), grade 0-5 (Leptochloa chinensis): 5 (Herbicidal ratio of 90% or more (almost completely withered))
- Herbicidal effect grade, A: Echinochloa oryzacola Vasing. [3]: 4 (Herbicidal ratio of 70% or higher and lower than 90%)
- Effect grade on crop, a: transplanted rice plant (transplanted rice plant): 0 (Herbicidal ratio of 5% or lower (almost no effect))
- Herbicidal effect grade, C: Monochoria vaginalis (Monochoria vaginalis [4]): 0 (Herbicidal ratio of 5% or lower (almost no effect))
- F: Digitaria ciliaris, herbicidal effect (criteria of Test Example 1) (Digitaria ciliaris): 0 (Herbicidal ratio of 5% or lower (almost no effect))
- N: Amaranthus retroflexus, herbicidal effect (criteria of Test Example 1) (Amaranthus retroflexus): 0 (Herbicidal ratio of 5% or lower (almost no effect))
- J: Alopecurus myosuroides, herbicidal effect (criteria of Test Example 1) (Alopecurus myosuroides): 0 (Herbicidal ratio of 5% or lower (almost no effect))
- herbicidal effect on E, grade 0-5 (Cyperus difformis): 0 (Herbicidal ratio of 5% or lower (almost no effect))
- Herbicidal effect grade, B: Scirpus juncoides (Scirpus juncoides [5]): 0 (Herbicidal ratio of 5% or lower (almost no effect))
- herbicidal effect on H (Echinochloa crus-galli var. crus-galli), grade 0-5 [6]: 5 (Herbicidal ratio of 90% or more (almost completely withered))
- f: beet, effect on crop (criteria of Test Example 1) (beet): 0 (Herbicidal ratio of 5% or lower (almost no effect))
- c: corn, effect on crop (criteria of Test Example 1) (corn): 3 (Herbicidal ratio of 40% or higher and lower than 70%)
- b: directly sowed rice plant, effect on crop (criteria of Test Example 1) (rice plant): 2 (Herbicidal ratio of 20% or higher and lower than 40%)
- H: Echinochloa crus-galli var. crus-galli, herbicidal effect (criteria of Test Example 1) [7]: 1 (Herbicidal ratio of 5% or higher and lower than 20%)
- Herbicidal effect grade, B: Scirpus juncoides (Scirpus juncoides [8]): 0 (Herbicidal ratio of 5% or lower (almost no effect))
- O: Chenopodium album, herbicidal effect (criteria of Test Example 1) (Chenopodium album): 0 (Herbicidal ratio of 5% or lower (almost no effect))
- Herbicidal effect grade, A: Echinochloa oryzacola Vasing. [9]: 1 (Herbicidal ratio of 5% or higher and lower than 20%)
- d: soybean, effect on crop (criteria of Test Example 1) (soybean): 0 (Herbicidal ratio of 5% or lower (almost no effect))

SMILES: COCCON=C(CC1CC(O)=C(c2c(C)cc(Br)cc2C)C1=O)C(C)C (stereo not drawn) [9-018]
- b (directly sowed rice plant) effect on crop grade ([1]; Table 24): 4 (Herbicidal ratio of 70% or higher and lower than 90%)
- P: Stellaria media, herbicidal effect grade (Stellaria media): 1 (Herbicidal ratio of 5% or higher and lower than 20%)
- M: Abutilon theophrasti, herbicidal effect grade (Abutilon theophrasti): 0 (Herbicidal ratio of 5% or lower (almost no effect))
- g: rapeseed, effect on crop grade (rapeseed): 0 (Herbicidal ratio of 5% or lower (almost no effect))
- G: Setaria viridis, herbicidal effect grade (Setaria viridis): 3 (Herbicidal ratio of 40% or higher and lower than 70%)
- I: Avena fatua, herbicidal effect grade (Avena fatua): 3 (Herbicidal ratio of 40% or higher and lower than 70%)
- R: Veronica persica, herbicidal effect grade (Veronica persica): 0 (Herbicidal ratio of 5% or lower (almost no effect))
- K: Lolium multiflorum Lam., herbicidal effect grade (Lolium multiflorum Lam.): 1 (Herbicidal ratio of 5% or higher and lower than 20%)
- C (Monochoria vaginalis) herbicidal effect grade (Monochoria vaginalis [2]): 0 (Herbicidal ratio of 5% or lower (almost no effect))
- e: wheat, effect on crop grade (wheat): 0 (Herbicidal ratio of 5% or lower (almost no effect))
- Q: Galium spurium, herbicidal effect grade (Galium spurium): 0 (Herbicidal ratio of 5% or lower (almost no effect))
- L: Apera spica-venti, herbicidal effect grade (Apera spica-venti): 0 (Herbicidal ratio of 5% or lower (almost no effect))
- D (Leptochloa chinensis) herbicidal effect grade (Leptochloa chinensis; Table 24): 0 (Herbicidal ratio of 5% or lower (almost no effect))
- A (Echinochloa oryzacola Vasing.) herbicidal effect grade [3]: 1 (Herbicidal ratio of 5% or higher and lower than 20%)
- a (transplanted rice plant) effect on crop grade (transplanted rice plant): 2 (Herbicidal ratio of 20% or higher and lower than 40%)
- Herbicidal effect grade, C: Monochoria vaginalis (Monochoria vaginalis [4]): 0 (Herbicidal ratio of 5% or lower (almost no effect))
- F: Digitaria ciliaris, herbicidal effect grade (Digitaria ciliaris): 0 (Herbicidal ratio of 5% or lower (almost no effect))
- N: Amaranthus retroflexus, herbicidal effect grade (Amaranthus retroflexus): 0 (Herbicidal ratio of 5% or lower (almost no effect))
- J: Alopecurus myosuroides, herbicidal effect grade (Alopecurus myosuroides): 1 (Herbicidal ratio of 5% or higher and lower than 20%)
- E herbicidal effect grade (Cyperus difformis; Table 24): 0 (Herbicidal ratio of 5% or lower (almost no effect))
- Herbicidal effect grade, B: Scirpus juncoides (Scirpus juncoides [5]): 0 (Herbicidal ratio of 5% or lower (almost no effect))
- H (Echinochloa crus-galli var. crus-galli) herbicidal effect grade ([6]; Table 24): 2 (Herbicidal ratio of 20% or higher and lower than 40%)
- f: beet, effect on crop grade (beet): 0 (Herbicidal ratio of 5% or lower (almost no effect))
- c: corn, effect on crop grade (corn): 3 (Herbicidal ratio of 40% or higher and lower than 70%)
- b: directly sowed rice plant, effect on crop grade (rice plant): 3 (Herbicidal ratio of 40% or higher and lower than 70%)
- H: Echinochloa crus-galli var. crus-galli, herbicidal effect grade [7]: 3 (Herbicidal ratio of 40% or higher and lower than 70%)
- B (Scirpus juncoides) herbicidal effect grade (Scirpus juncoides [8]): 0 (Herbicidal ratio of 5% or lower (almost no effect))
- O: Chenopodium album, herbicidal effect grade (Chenopodium album): 0 (Herbicidal ratio of 5% or lower (almost no effect))
- Herbicidal effect grade, A: Echinochloa oryzacola Vasing. [9]: 1 (Herbicidal ratio of 5% or higher and lower than 20%)
- d: soybean, effect on crop grade (soybean): 0 (Herbicidal ratio of 5% or lower (almost no effect))
